Results on 12 molecules are retold here after US10011615B2, “Heterobicyclo-substituted [1,2,4]triazolo[1,5-c]quinazolin-5-amine compounds with A2A anatagonist properties” (Merck Sharp & Dohme Corp., priority 2012, dated 2018).

The experiment concerns the target T1, human A2a receptor (Homo sapiens, UniProt P29274).
T1 construct: purchased Perkin-Elmer RBHA2AM400UA; host or cells: HEK293 cell membranes
The experiment is described as follows: A2a receptor competition binding assay using Scintillation Proximity technology. The conditions noted are these: membranes from HEK293 cells expressing human A2a receptor; 0.5 nM tritiated radioligand; SPA beads; 1 h room temperature. An outline of the steps: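 Membranes of HEK293 cells expressing human A2a, pretreated with adenosine deaminase, incubated 1 h at room temperature with 0.5 nM tritiated pyrazolotriazolopyrimidine antagonist (final) and compound (3000 to 0.15 nM) on WGA SPA beads in Ca/Mg-free PBS with 10 mM MgCl2. Ki from EC50 via Cheng-Prusoff.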
(Scintillation proximity formats need no separation of bound from free tracer.)

Molecules are shown by their SMILES. Structures can show the parent of a compound that is named as a salt.

T1 sequence (P29274 whole entry): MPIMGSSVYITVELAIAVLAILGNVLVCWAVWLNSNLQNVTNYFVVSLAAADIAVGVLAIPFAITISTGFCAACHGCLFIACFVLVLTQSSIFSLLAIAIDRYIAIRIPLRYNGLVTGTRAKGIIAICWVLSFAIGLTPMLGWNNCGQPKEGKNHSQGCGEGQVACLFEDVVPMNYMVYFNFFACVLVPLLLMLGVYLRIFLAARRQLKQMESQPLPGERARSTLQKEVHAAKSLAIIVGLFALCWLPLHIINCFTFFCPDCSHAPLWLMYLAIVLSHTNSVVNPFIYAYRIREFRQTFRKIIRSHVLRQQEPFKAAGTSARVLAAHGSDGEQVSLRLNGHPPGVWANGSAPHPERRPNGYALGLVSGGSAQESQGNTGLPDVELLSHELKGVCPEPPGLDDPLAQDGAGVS

For orientation: EC50 means the midpoint of the concentration-response curve. As for `COc1cccc2c1nc(N)n1nc(CCCN3Cc4ccc(C(F)(F)F)cc4C3)nc21` [Ex-230, 7-methoxy-2-(3-(5-(trifluoromethyl)isoindolin-2-yl)propyl)-[1,2,4]triazolo[1,5-c]quinazolin-5-amine], a half-maximal response (EC50) required 5.7 nM.
The figure for `COc1cccc2c1nc(N)n1nc(CCN3Cc4oc(C)nc4C(C)(C)C3)nc21` [Ex-235, 7-Methoxy-2-(2-(2,7,7-trimethyl-6,7-dihydro-oxazolo[5,4-c]pyridin-5(4H)-yl)ethyl)-[1,2,4]triazolo[1,5-c]quinazolin-5-amine, TFA] is 2.8 nM; for `COc1cccc2c1nc(N)n1nc(CCN3CCc4nc(C)oc4C3C)nc21` (stereo not drawn) [Ex-236, 2-(2-(2,4-dimethyl-6,7-dihydrooxazolo[5,4-c]pyridin-5(4H)-yl)ethyl)-7-methoxy-[1,2,4]triazolo[1,5-c]quinazolin-5-amine] it is 1.4 nM; for `COc1cccc2c1nc(N)n1nc(CCN3Cc4oc(C)nc4CC3C)nc21` (stereo not drawn) [Ex-237, 2-(2-(2,6-dimethyl-6,7-dihydrooxazolo[5,4-c]pyridin-5(4H)-yl)ethyl)-7-methoxy-[1,2,4]triazolo[1,5-c]quinazolin-5-amine] it is 3.5 nM.
Molecule `COc1cccc2c1nc(N)n1nc(CCN3Cc4nc(C5CC5)sc4C3)nc21` [Ex-241, 2-(2-(2-cyclopropyl-4H-pyrrolo[3,4-d]thiazol-5(6H)-yl)ethyl)-7-methoxy-[1,2,4]triazolo[1,5-c]quinazolin-5-amine] yielded an EC50 of 7.3 nM.
Take `COc1cccc2c1nc(N)n1nc(CCN3Cc4nc(C(C)C)sc4C3)nc21` [Ex-242, 2-(2-(2-isopropyl-4H-pyrrolo[3,4-d]thiazol-5(6H)-yl)ethyl)-7-methoxy-[1,2,4]triazolo[1,5-c]quinazolin-5-amine]: the EC50 was determined as 0.1 nM.
`CCc1nc2c(s1)CN(CCc1nc3c4cccc(OC)c4nc(N)n3n1)C2` [Ex-243, 2-(2-(2-ethyl-4H-pyrrolo[3,4-d]thiazol-5(6H)-yl)ethyl)-7-methoxy-[1,2,4]triazolo[1,5-c]quinazolin-5-amine] returned a 50% effective concentration (EC50) of 1.3 nM. Compared with the last molecule, the EC50 is about 13-fold higher.
Molecule `COc1cccc2c1nc(N)n1nc(CCN3Cc4nc(C)oc4C3)nc21` [Ex-244, 7-methoxy-2-(2-(2-methyl-4H-pyrrolo[3,4-d]oxazol-5(6H)-yl)ethyl)-[1,2,4]triazolo[1,5-c]quinazolin-5-amine] displayed a concentration giving a half-maximal response (EC50) of 0.3 nM. Compared with the last molecule, the EC50 is about 4.3-fold lower.
The figure for `COc1cccc2c1nc(N)n1nc(CCN3Cc4nc(C5CC5)oc4C3)nc21` [Ex-245] is 1 nM; for `COc1cccc2c1nc(N)n1nc(CCN3Cc4cnn(C)c4C3)nc21` [Ex-246, 7-methoxy-2-(2-(1-methylpyrrolo[3,4-c]pyrazol-5(1H,4H,6H)-yl)ethyl)-[1,2,4]triazolo[1,5-c]quinazolin-5-amine] it is 5.4 nM; for `COc1cccc2c1nc(N)n1nc(C[C@@H](C)N3Cc4nc(C)oc4C3)nc21` [Ex-247, (R)-7-methoxy-2-(2-(2-methyl-4H-pyrrolo[3,4-d]oxazol-5(6H)-yl)propyl)-[1,2,4]triazolo[1,5-c]quinazolin-5-amine] it is 0.2 nM.
Molecule `CC[C@H](Cc1nc2c3cccc(OC)c3nc(N)n2n1)N1Cc2nc(C)oc2C1` [Ex-248, (R)-7-methoxy-2-(2-(2-methyl-4H-pyrrolo[3,4-d]oxazol-5(6H)-yl)butyl)-[1,2,4]triazolo[1,5-c]quinazolin-5-amine] yielded an EC50 of 1 nM. Compared with the last molecule, the EC50 is about 5-fold higher.
